Assays:
[1] = Solubility study in common oils, silicones and water; type: physicochemical
Excerpt: It may be concluded that the CBD isolate was soluble in all oils and insoluble in all silicones and water. The CBD derivatives were insoluble in water and soluble in both oils and silicones (heating was required for the derivative of Example 1). […] Thus, the presence of the silicon-containing groups increased the solubility of CBD in all silicones tested.

[2] = Release of CBD from the infused silicone elastomer on water washes, TLC analysis; type: physicochemical; settings: hydrolyzed sample and water washes compared to CBD isolate
Method: A solution was prepared by adding 5 g of the trisiloxanyl-cannabidiol product (IV) prepared in Example 3 and 5 g of n-propylheptamethyltrisiloxane (commercially available from Gelest) to a 20 ml vial. Sample 1 was prepared by inserting apiece of silicone elastomer (1.5 cm×2.5 cm, 0.35 g, commercially available from Gelest) into a 20 ml vial containing the solution and letting the vial sit with a closed lid for 30 minutes to absorb the solution into the elastomer. Sample 2 (control) was an identical piece of silicone elastomer which was inserted into a 20 ml vial containing hemp seed oil and let sit with a closed lid for 30 minutes to absorb the hemp oil into the elastomer.
Sample 1 was washed in water three consecutive times. For each wash, the sample was placed in a vial containing 10 g of DI water and shaken for 10 seconds. The water from each wash was collected and analyzed for the presence of CBD using a basic thin-layer chromatography (TLC) method using 20% ethyl acetate in hexanes. CBD isolate was compared to a hydrolyzed sample of trisiloxanyl-cannabidiol product (IV) as well as all three washes.

Question: For `C=C(C)[C@@H]1CCC(C)=C[C@H]1c1c(O)cc(CCCCC)cc1O` [CBD, 2-[(1R,6R)-3-methyl-6-(1-methylethenyl)-2-cyclohexen-1-yl]-5-pentyl-1,3-benzenediol, reference compound], which “Solubility in oils” value ([1]; all oils tested) is on record?
Answer: Its value is “soluble”.

Question: What about the “Solubility in silicones” value ([1]; all silicones tested) of the same compound?
Answer: Its value is “insoluble”.

Question: And the “Solubility in water” value ([1]; water)?
Answer: The value was “insoluble”.

Question: Which “Solubility in castor oil” value ([1]; castor oil, even with partial heating) does the source give for `CCCCCc1cc(O)c([C@H]2C=C(C)CC[C@H]2C(C)C[Si](C)(C)O[Si](C)(C)O[Si](C)(C)O[Si](C)(C)O[Si](C)(C)CCCC)c(O)c1` (stereo partly drawn) [Example 2, 2-[(1R,6R)-3-Methyl-6-(1-methyl-2-(1-butyl-1,1,3,3,5,5,7,7-octamethyltetrasiloxy-dimethylsilyl)ethyl)-2-cyclohexen-1-yl]-5-pentyl-1,3-benzenediol] here?
Answer: The value was “only partially soluble”.

Question: With `C=C(C)[C@@H]1CCC(C)=C[C@H]1c1c(O)cc(CCCCC)cc1O[Si](C)(O[Si](C)(C)C)O[Si](C)(C)C` [Example 3, 2-[(1R,6R)-3-Methyl-6-(1-methylethenyl)-2-cyclohexen-1-yl]-5-pentyl-1-(bis(trimethylsiloxy)methylsiloxy)-3-ol-benzene] as the compound, how does the “Hydrolysis to release CBD (TLC)” value [2] read?
Answer: The value was “underwent hydrolysis to release CBD”.

From US10933008B1, “Silicon-based cannabidiol derivatives and compositions thereof” (Gelest Technologies, Inc., priority 2015, dated 2021)
